Experiments:
human airways = settings: in vitro; cited from earlier work
canine tracheas = settings: in vivo; cited from earlier work
leukotriene synthesis = test: inhibition of leukotriene synthesis (standard laboratory test); format: cell-based
Procedure: Certain of the amino acyl compounds of this invention (when R3 is --C(O)--(CR17 R18)m --(CH2)n --NR14 R15, --C(O)--AA or --C(O)--PhX--NH2) were evaluated in a standard laboratory test to measure the inhibition of leukotriene synthesis. Four of the amino-type compounds of this invention were preferred in this test. Specifically, in this test system, L-Valine, 2,3-diethyl-4-methoxynaphth-1-yl ester, hydrochloride; L-Valine, 2-n-butyl-4-methoxynaphth-1-yl ester; L-Valine, 2-n-butyl-4-methoxynaphth-1-yl ester, hydrochloride; and L-Alanine, 2-n-butyl-4-methoxynaphth-1-yl ester were preferred.

SRS-A = SRS-A synthesis inhibition in rat mononuclear cells incubated with cysteine and challenged with calcium ionophore; format: cell-based; settings: 10 micrograms/ml
Procedure: This test is conducted in rat mononuclear cells incubated in the presence of cysteine and challenged with a calcium ionophore (which induces SRS-A formation). Among the nonamino compounds of this invention, in this test system, 1-acetoxy-2-n-butyl-4-methoxynaphthalene (Example 3) and 1-acetoxy-2,3-diethyl-4-methoxynaphthalene (Example 4) are preferred.

lipoxygenase = lipoxygenase inhibition, oxygen uptake of washed human platelets with arachidonic acid; format: cell-based; settings: for inhibition of 5-HETE production: 10 μm
Procedure: The compounds of the present invention were also tested for lipoxygenase inhibition. Arachidonic acid is added to washed human platelets and the oxygen uptake is measured using oxygraph cells. A decrease of oxygen uptake versus the control cell indicates inhibition of lipoxygenase. For a full description of the procedure see, Wallach, et al., Biochim. Biophys. Acta. 231: 445 (1976).

mucous secretion = test: canine tracheal mucous secretion (hillock count); format: in vivo, mongrel dogs
Procedure: Mongrel dogs (weight 18-35 kg) were anesthetized with a mixture of chloralose (100 mg/kg) and urethane (500 mg/kg) via intravenous injection. The animals were secured to a surgery table, ventral side up, and the neck and inner right hind limb were shaved. A ventral midline incision was made in the neck using a Bovie CSVII electrosurgical unit, starting from the papillae (interramal) to the clavicle thus exposing the trachea. An endotracheal tube was secured into the lower trachea. The animals were then connected via the endotracheal tube to a Harvard respirator (Model 607A) that delivered room air at a constant tidal volume and frequency. Two polyethylene catheters were connected to the endotracheal tube, and one was connected to a medical gas analyzer (Beckman, Model LB-2) that continuously measured the carbon dioxide (CO2) content of the expired air for determination of end tidal CO2. The other was connected to a pressure transducer (Statham, Model PMI 131TC+2.5-350) for the measurement of airway press ure.
A second incision made in the inner right hind limb to expose the femoral artery and vein was made for the catheterization of these large vessels. A polyethylene catheter was tied into the artery and connected to a pressure transducer (Statham, Model P231D) for the measurement of blood pressure. This catheter also allowed for samples of arterial blood to be collected for measurements of blood gas tension using a blood gas analyser (Corning, Model 175). Another polyethylene catheter was tied into the femoral vein which was used for injecting additional anesthetic and paralyzing drugs. Gallamine triethiodide (20-40 mg) was used to paralyze the respiratory muscles and a single injection of sodium bicarbonate 7.5% (0.5 mg/kg) in conjunction with a continuous i.v. drip of 5% dextrose in 0.9% saline helped to maintain fluid balance. All physiological measurements were recorded and monitored on a polygraph (Grass instruments, Model 7D). Once the femoral cutdown was completed, surgery on the neck region resumed. The carotid artery was exposed and the "knuckle" (a portion of the carotid which bisects to supply blood flow to the trachea and neck muscles) was located. A small polyethylene catheter was then inserted into the muscular branch of the cranial thyroid artery (CTA). This allowed for close arterial injection of experimental agents. The strap muscles were removed and the mucosal surface of the trachea exposed by cutting along the anterior midline of the upper two-thirds of the extrathoracic trachea and pulling the cut edges widely apart. The exposed mucosa was checked for proper canulation by blanching and appropriate adjustments of the canula into the CTA were made until blanching was achieved.
Isometric tension measurements of the trachealis muscle were recorded by suturing a rigid, plastic bar to the (15) cartilaginous rings of the cut edges of the trachea, and connecting one side to a fixed restraint and the contralateral side to a force displacement transducer (Grass, Model FT 03C). An initial tension of 25-30 g/cm of trachea was applied to the muscle, and it was allowed to stabilize for 45 min. An initial zero tension point was determined before agonists were injected into the CTA, and the zero was readjusted after agonist injections.
To visualize secretions coming from the submucosal gland duct openings of the trachea, powdered tantalum, an inert metal (2-5 microns in size) was sprayed on the trachea until it formed a uniform layer over the mucosal surface. The tantalum itself did nothing to normal secretion, but prevented the normal ciliary dispersion of secretions from the gland duct openings; these secretions, therefore, caused elevations ("hillocks") in the tantalum layer. The number of hillocks formed in a 1.2 cm^2 field, 1-2 cm from the larynx, were counted and their images were recorded with a video camera (Hitachi CCTV, Model HV-17TU) mounted on a dissecting microscrope (Zeiss Ompi-1) with a beam splitter. […]

deep vein thrombosis = test: deep vein thrombosis: jugular vein stasis in cats, scanning electron microscopy; format: in vivo, domestic short hair cats
Procedure: Nine adult domestic short hair cats weighing 4.5-5 kg were anesthetized with sodium pentabarbital (25-30 mg/kg i.v.). The neck area was prepared for a sterile cut down procedure and the jugular veins were exposed. After exposure of the veins each animal was injected with epsilon amino caproic acid (eaca) to inhibit plasminogen activation (2.5 grams i.v. in Tyrode's solution). […] Six of the cats were also treated with 2,3-diethyl-4-methoxy-1-naphthalenol, acetate. Three of the cats were given 1 mg/kg i.v. and 3 of the cats were treated with 5 mg/kg i.v. prior to venous occlusion. The jugular veins were carefully dissected free of surrounding connective tissue and the vein was ligated at the thoracic inlet with 3-0 dexon. The skin incision was closed and the animals were maintained in surgical anesthesia for 2 hours. At the end of the 2 hour waiting period, the jugular veins were exposed again. A 25 gauge butterfly needle was positioned into the lumen and blood was flushed out of the vein with heparinized Tyrode's solution (1U heparin/ml). The veins were tied off and removed under physiologic pressure. The vessels were immediately immersed in a 2.5% glutaraldehyde solution prepared in Tyrode's solution for fixation. The veins were fixed overnight at 5 degrees centigrade, postfixed in 1% osmium tetroxide overnight, dehydrated in ethanol and substituted by amyl acetate. All veins were critical point dried from carbon dioxide using a Denton DCP-1 critical point drying apparatus. The veins were mounted on stubas, gold coated on a Denton DV-502 modified vacuum evaporator and examined on a Cambridge Stereoscan 150 scanning electron microscope.
Two hours of jugular vein stasis following the trauma of dissection caused massive white cell adhesion to and migration under the venous endothelium of non-treated cats and produced sloughing of the endothelium and exposure of the basement membrane. This damage was sufficient to initiate thrombosis. Many of the exposed areas of basement membrane had adherent platelets. The platelets were adherent as monolayers or as aggregates. In some areas fibrin was found deposited on the endothelium or exposed basement membrane. Leukocytes were occasionally associated with the fibrin.

tracheal mucus velocity = settings: given prior to antigen challenge, patients with a history of bronchial asthma; cited from earlier work
[1] = 1.0 mg/kg oral, predose time 3.5 hr, n=2, ↑ indicates stimulation
[2] = 5 mg/kg oral, predose time 3.5 hr, n=2
[3] = 1.0%, inhalation, n=6, ***p<0.0001

For `CCCCC/C=C\C\C=C/C=C/C=C/[C@@H](SC[C@H](N)C(=O)NCC(=O)O)[C@@H](O)CCCC(=O)O` [LTD4, leukotriene D4], the “release of mucus from human airways” value (human airways) is listed as “increase the release of mucus” and the “release of mucus from canine tracheas” value (canine tracheas) is listed as “increase the release of mucus”.

In the case of `CCc1c(CC)c(OC(=O)[C@@H](N)C(C)C)c2ccccc2c1OC.Cl` [L-Valine, 2,3-diethyl-4-methoxynaphth-1-yl ester, hydrochloride], the inhibition at 1 µg/mL (leukotriene synthesis; 1 microgram/ml) is reported as 100% and the “inhibition of synthesis of leukotriene” value (leukotriene synthesis; 10 micrograms/ml) is reported as “completely inhibited”.

With `CCCCc1cc(OC)c2ccccc2c1OC(C)=O` [Example 3, 2-Butyl-4-methoxy-1-naphthalenol, acetate] the inhibition at 10 µg/mL (SRS-A) was 100%, the “inhibition of 5-HETE production” value (lipoxygenase) was “completely inhibiting” and the IC50 (lipoxygenase; lipoxygenase system, washed human platelets) was roughly 0.1 µM. For the same compound, the “% Inhibition of Agonist Response, Indo/AA” value (“% Inhibition … Indo/AA” below) (mucous secretion; 0.001%, inhalation, n=4, **p<0.005) was 100%, the “% Inhibition of Agonist Response, Hypoxia” value (mucous secretion; 0.001%, inhalation, n=4, *p<0.05) was 87% and the “% Inhibition of Agonist Response, Baseline: stimulation (.uparw.)” value (mucous secretion; 0.001%, inhalation, n=4, ↑ indicates stimulation) was 24%. For the same compound, the “% Inhibition … Indo/AA” value (mucous secretion; 1.0 mg/kg oral, predose time 3.5 hr, n=2) was 50%, the “% Inhibition of Agonist Response, Baseline: stimulation (.uparw.)” value (mucous secretion; [1]) was 6% and the “% Inhibition of Agonist Response, Hypoxia: stimulation (.uparw.)” value (mucous secretion; [1]) was 11%. The “% Inhibition … Indo/AA” value (mucous secretion; 1.0 mg/kg oral, predose time 5.0 hr, n=2, *p<0.05) was 62%, the “% Inhibition of Agonist Response, Hypoxia” value (mucous secretion; [2]) was 49% and the “% Inhibition … Indo/AA” value (mucous secretion; [2]) was 69%. For the same compound, the “% Inhibition of Agonist Response, Baseline: stimulation (.uparw.)” value (mucous secretion; 5 mg/kg oral, predose time 3.5 hr, n=2, ↑ indicates stimulation) was 30%, the “% Inhibition … Indo/AA” value (mucous secretion; 5 mg/kg oral, predose time 4.5 hr, n=2) was 95% and the “% Inhibition of Agonist Response, Baseline” value (mucous secretion; 0.01%, inhalation, n=5) was 19%. The “% Inhibition of Agonist Response, Hypoxia” value (mucous secretion; 0.01%, inhalation, n=5) was 91%, the “% Inhibition … Indo/AA” value (mucous secretion; 0.01%, inhalation, n=5, **p<0.005) was 100% and the “% Inhibition of Agonist Response, Hypoxia” value (mucous secretion; 10 mg/kg oral, predose time 3 hr, n=2) was 94%. The “% Inhibition … Indo/AA” value (mucous secretion; 10 mg/kg oral, predose time 3 hr, n=2, *p<0.05) was 100%, the “% Inhibition of Agonist Response, Baseline: stimulation (.uparw.)” value (mucous secretion; 10 mg/kg oral, predose time 3 hr, n=2, ↑ indicates stimulation) was 5% and the “% Inhibition … Indo/AA” value (mucous secretion; 10 mg/kg oral, predose time 4 hr, n=2, *p<0.05) was 100%. The “% Inhibition … Indo/AA” value (mucous secretion; 10 mg/kg oral, predose time 5 hr, n=2, *p<0.05) was 100%, the “% Inhibition of Agonist Response, Baseline” value (mucous secretion; 0.1%, inhalation, n=4) was 23% and the “% Inhibition … Indo/AA” value (mucous secretion; 0.1%, inhalation, n=4, **p<0.005) was 100%. The “% Inhibition of Agonist Response, Hypoxia” value (mucous secretion; 0.1%, inhalation, n=4, *p<0.05) was 96%, the “% Inhibition of Agonist Response, Baseline” value (mucous secretion; 1.0%, inhalation, n=6) was 6% and the “% Inhibition of Agonist Response, Hypoxia” value (mucous secretion; [3]) was 100%. The “% Inhibition … Indo/AA” value (mucous secretion; [3]) was 100% and the “effect on baseline secretion and on enhanced mucus secretion due to hypoxia or arachidonic acid” value (mucous secretion; mongrel dog model) was “effective in blocking baseline secretion in a dose dependent fashion as well as enhanced mucus secretion due to hypoxia or arachidonic acid administration”.

With `CCCCc1cc(OC)c2ccccc2c1OC(=O)[C@@H](N)C(C)C` [L-Valine, 2-n-butyl-4-methoxynaphth-1-yl ester] the inhibition at 1 µg/mL (leukotriene synthesis; 1 microgram/ml) was 97% and the “inhibition of synthesis of leukotriene” value (leukotriene synthesis; 10 micrograms/ml) was “completely inhibited”.

In the case of monohydroxyeicosatetraenoic acid, the “release of mucus from human airways” value (human airways) is given as “release mucus from human airway”.

For `CCc1c(CC)c(OC(C)=O)c2ccccc2c1OC` [Example 4, 2,3-Diethyl-4-methoxy-1-naphthalenol, acetate], the inhibition at 10 µg/mL (SRS-A) was 95%, the “inhibition of 5-HETE production” value (lipoxygenase) was “completely inhibiting” and the “areas with detached endothelial cells or exposed basement membrane” value (deep vein thrombosis; 1 mg/kg i.v.) was “Few areas with detached endothelial cells or exposed basement membrane”. For the same compound, the “leukocyte adhesion or migration” value (deep vein thrombosis; 1 mg/kg i.v.) was “did not reduce leukocyte adhesion or migration”, the “leukocyte release of hydrolytic enzymes and production of superoxides” value (deep vein thrombosis; 1 mg/kg i.v.) was “apparently inhibited” and the “areas of adherent leukocytes” value (deep vein thrombosis; 5 mg/kg i.v.) was “only patchy areas of adherent leukocytes were observed”. For the same compound, the fibrin deposition (deep vein thrombosis; 5 mg/kg i.v.) was “Only occasional small areas of fibrin deposition”, the “inhibitory effect on leukocyte mediated damage” value (deep vein thrombosis; 5 mg/kg i.v., compared with 1 mg/kg) was “even greater inhibitory effect on leukocyte mediated damage” and the “numbers of adhering and migrating leukocytes” value (deep vein thrombosis; 5 mg/kg i.v., compared with control or 1 mg/kg group) was “appeared to be less”. For the same compound, the “vascular surface with intact endothelial cell cover and few adherent leukocytes” value (deep vein thrombosis; 5 mg/kg i.v., with the exception of one vein) was “approximately half or more of the vascular surface” and the “effect on the vascular changes” value (deep vein thrombosis; 1 and 5 mg/kg i.v. prior to venous occlusion) was “dose dependent effect on the vascular changes”.

In the case of `CCCc1c(OCC(O)COc2ccc3c(=O)cc(C(=O)O)oc3c2CCC)ccc(C(C)=O)c1O` (stereo not drawn) [FPL 55712], the “reversing the tracheal mucus velocity” value (tracheal mucus velocity) is given as “effective in reversing the tracheal mucus velocity”.

For `COc1ccc2c(c1)c(CC(=O)O)c(C)n2C(=O)c1ccc(Cl)cc1` [indomethacin, reference compound], the “block of normal baseline secretion” value (mucous secretion; indomethacin 5 mg/kg pretreatment, at least 30 minutes) was “about 20%” and the “block of the effect of arachidonate alone” value (mucous secretion; indomethacin 5 mg/kg pretreatment, arachidonate 1.0 mg in the CTA) was “nicely blocked the effect of arachidonate alone”.

For `CCCCc1cc(OC)c2ccccc2c1OC(=O)[C@@H](N)C(C)C.Cl` [L-Valine, 2-n-butyl-4-methoxynaphth-1-yl ester, hydrochloride], the “inhibition of synthesis of leukotriene” value (leukotriene synthesis; 1 microgram/ml) was 93% and the “inhibition of synthesis of leukotriene” value (leukotriene synthesis; 10 micrograms/ml) was “completely inhibited”.

In the case of `CCCCc1cc(OC)c2ccccc2c1OC(=O)[C@H](C)N` [L-Alanine, 2-n-butyl-4-methoxynaphth-1-yl ester], the inhibition at 1 µg/mL (leukotriene synthesis; 1 microgram/ml) is reported as 98% and the “inhibition of synthesis of leukotriene” value (leukotriene synthesis; 10 micrograms/ml) is reported as “completely inhibited”.
